Target: T1, mCD1d (Mus musculus, UniProt P11609)
T1 sequence (P11609 22-305 limits assumed): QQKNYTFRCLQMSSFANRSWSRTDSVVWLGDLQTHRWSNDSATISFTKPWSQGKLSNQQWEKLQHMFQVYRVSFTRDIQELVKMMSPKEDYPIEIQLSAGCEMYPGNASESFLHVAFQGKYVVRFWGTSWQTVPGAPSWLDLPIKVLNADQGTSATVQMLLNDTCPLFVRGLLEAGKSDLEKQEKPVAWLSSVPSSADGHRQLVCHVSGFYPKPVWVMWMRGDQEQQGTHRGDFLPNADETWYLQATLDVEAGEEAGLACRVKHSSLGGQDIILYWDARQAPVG
T1 sequence (P01887 21-119 partner): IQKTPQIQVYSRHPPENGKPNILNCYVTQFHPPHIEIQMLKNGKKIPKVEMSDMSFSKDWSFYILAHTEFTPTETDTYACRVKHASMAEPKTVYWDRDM
Experiment: SPR of soluble TCR binding to glycolipid-loaded mCD1d

SMILES: CCCCCCCCCCCCCCCCCCCCCCCCCC(=O)N[C@@H](CO[C@H]1O[C@H](CO)[C@H](O)[C@H](O)[C@H]1O)[C@H](O)[C@H](O)CCCCCCCCCCCCCC [compound 1, α-GalCer]
- Kd: 12.8 nM
